Consider eight compounds from ChEMBL document CHEMBL4715703, “Engineering of a Novel Simplified Human Insulin-Like Peptide 5 Agonist” (J Med Chem, 2016).

For experiment [1], the target named is T1, Relaxin-3 receptor 2 (Homo sapiens, UniProt Q8TDU9). Nature of the experiment: Agonist activity at human RXFP4 expressed in CHO-K1 cells assessed as reduction in forskolin-induced cAMP production by pCRE beta-galactosidase reporter assay. The experiment is classed as functional, cell-based.
For experiment [2], the target named is T1, Relaxin-3 receptor 2. Briefly: Displacement of europium-labeled Eu(A)-mINSL5 from human RXFP4 expressed in CHO-K1 cells. The experiment is classed as cell-based.

Where a SMILES comes first, the peptide text is derived from it. Bridges are numbered along the chain shown (N, C = ends). Roman numbers before positions name the chains, in order.

T1 sequence (Q8TDU9 whole entry): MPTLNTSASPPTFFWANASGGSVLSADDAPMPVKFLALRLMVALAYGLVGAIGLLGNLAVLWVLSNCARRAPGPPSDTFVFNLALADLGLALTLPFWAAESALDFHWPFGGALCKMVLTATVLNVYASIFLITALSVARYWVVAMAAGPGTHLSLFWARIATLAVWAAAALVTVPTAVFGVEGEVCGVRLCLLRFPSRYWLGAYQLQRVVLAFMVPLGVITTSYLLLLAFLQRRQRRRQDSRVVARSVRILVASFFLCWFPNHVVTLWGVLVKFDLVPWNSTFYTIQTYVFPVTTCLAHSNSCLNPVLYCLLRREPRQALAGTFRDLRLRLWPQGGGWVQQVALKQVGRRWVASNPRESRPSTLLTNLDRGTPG

As for `CC[C@H](C)[C@@H]1NC(=O)[C@H](Cc2ccc(O)cc2)NC(=O)[C@H]([C@@H](C)CC)NC(=O)[C@H](C(C)C)NC(=O)[C@H]([C@@H](C)O)NC(=O)[C@H](CCCNC(=N)N)NC(=O)[C@H](C(C)C)NC(=O)[C@H](Cc2ccc(O)cc2)NC(=O)[C@H](CC(=O)O)NC(=O)[C@H](CC(C)C)NC(=O)CNC(=O)[C@@H](NC(=O)[C@H](CC(C)C)NC(=O)[C@H](CCCCN)NC(=O)[C@@H](NC(=O)[C@@H](NC(=O)[C@H](CCC(N)=O)NC(=O)[C@H](CCCNC(=N)N)NC(=O)[C@@H](N)CO)[C@@H](C)O)C(C)C)CSSC[C@@H]2NC(=O)[C@@H](NC(=O)[C@H](CC(C)C)NC(=O)[C@@H](NC(=O)[C@H](CCC(N)=O)NC(=O)[C@H](CC(C)C)NC(=O)[C@H](CC(=O)O)NC(=O)C3CCC(=O)N3)[C@@H](C)O)CSSC[C@@H](NC(=O)CNC(=O)[C@H](CC(=O)O)NC(=O)[C@H]([C@@H](C)O)NC2=O)C(=O)N[C@H](CO)C(=O)N[C@H](CCSC)C(=O)N[C@H]([C@H](C)O)C(=O)N[C@H](CC(=O)O)C(=O)N[C@H](CC(C)C)C(=O)N[C@H](CO)C(=O)N[C@H](C)C(=O)N[C@H](CC(C)C)C(=O)N[C@@H](C(=O)O)CSSC[C@H](C(=O)N[C@@H](C)C(=O)N[C@@H](CO)C(=O)N[C@@H](CO)C(=O)N[C@@H](CCCNC(=N)N)C(=O)N[C@@H](Cc2c[nH]c3ccccc23)C(=O)O)NC1=O` (stereo not given in full), in experiment [1], the EC50 is 2.75 nM.
`CC[C@H](C)[C@@H]1NC(=O)[C@H](C(C)C)NC(=O)[C@H]([C@@H](C)O)NC(=O)[C@H](CCCNC(=N)N)NC(=O)[C@H](C(C)C)NC(=O)[C@H](Cc2ccc(O)cc2)NC(=O)[C@H](CC(=O)O)NC(=O)[C@H](CC(C)C)NC(=O)CNC(=O)[C@@H](NC(=O)[C@H](CC(C)C)NC(=O)[C@H](CCCCN)NC(=O)[C@@H](NC(=O)[C@@H](NC(=O)[C@H](CCC(N)=O)NC(=O)[C@H](CCCNC(=N)N)NC(=O)[C@@H](N)CO)[C@@H](C)O)C(C)C)CSSC[C@@H]2NC(=O)[C@@H](NC(=O)[C@H](CC(C)C)NC(=O)[C@H](C)NC(=O)[C@H](CCC(N)=O)NC(=O)[C@H](CC(C)C)NC(=O)[C@H](CC(=O)O)NC(=O)[C@@H](N)CCCNC(=N)N)CSSC[C@H](NC(=O)CNC(=O)[C@H](CCC(=O)O)NC(=O)[C@H](CCCNC(=N)N)NC2=O)C(=O)N[C@@H](CO)C(=O)N[C@@H](CCSC)C(=O)N[C@@H](CCCCN)C(=O)N[C@@H](CCC(=O)O)C(=O)N[C@@H](CC(C)C)C(=O)N[C@@H](CO)C(=O)N[C@@H]([C@@H](C)O)C(=O)N[C@@H](CC(C)C)C(=O)N[C@H](C(=O)O)CSSC[C@@H](C(=O)N[C@@H](C)C(=O)N[C@@H](CO)C(=O)N[C@@H](CO)C(=O)N[C@@H](CCCNC(=N)N)C(=O)N[C@@H](Cc2c[nH]c3ccccc23)C(=O)O)NC(=O)[C@H]([C@@H](C)CC)NC(=O)[C@@H](Cc2ccc(O)cc2)NC1=O`: affinity in experiment [2] was put at a Ki of 1.58 nM. Besides, in experiment [1], the EC50 amounted to 0.51 nM.
Compound `CC[C@H](C)[C@@H]1NC(=O)[C@H](Cc2ccc(O)cc2)NC(=O)[C@H]([C@@H](C)CC)NC(=O)[C@H](C(C)C)NC(=O)[C@H]([C@@H](C)O)NC(=O)[C@H](CCCNC(=N)N)NC(=O)[C@H]([C@@H](C)CC)NC(=O)[C@H](Cc2ccc(O)cc2)NC(=O)[C@H](CCC(=O)O)NC(=O)[C@H](CC(C)C)NC(=O)CNC(=O)[C@@H](NC(=O)[C@H](CC(C)C)NC(=O)[C@H](CCCNC(=N)N)NC(=O)[C@@H](NC(=O)[C@H](CO)NC(=O)[C@H](CCC(=O)O)NC(=O)[C@@H](N)CCCCN)C(C)C)CSSC[C@H](N)C(=O)N[C@@H](CCCNC(=N)N)C(=O)N[C@@H](CC(=O)O)C(=O)NCC(=O)N[C@@H](C)C(=O)N[C@@H](CO)C(=O)N[C@@H](CCSC)C(=O)N[C@@H](CCCCN)C(=O)N[C@@H](CC(=O)O)C(=O)N[C@@H](CC(C)C)C(=O)N[C@@H](CO)C(=O)N[C@@H](C)C(=O)N[C@@H](CC(C)C)C(=O)N[C@H](C(=O)O)CSSC[C@@H](C(=O)N[C@@H](C)C(=O)N[C@@H](CO)C(=O)N[C@@H](CO)C(=O)N[C@@H](CCCNC(=N)N)C(=O)N[C@@H](Cc2c[nH]c3ccccc23)C(=O)O)NC1=O` (I: H-KESVRLCGLEYIRTVIYICASSRW-OH / II: H-CRDGASMKDLSALC-OH; disulfide I:7-II:1, I:19-II:14) displayed a Ki in experiment [2] of 23.4 nM. Further, in experiment [1], the EC50 came out at 39.8 nM.
Turning to `CC[C@H](C)[C@@H]1NC(=O)[C@H](Cc2ccc(O)cc2)NC(=O)[C@H]([C@@H](C)CC)NC(=O)[C@H](C(C)C)NC(=O)[C@H]([C@@H](C)O)NC(=O)[C@H](CCCNC(=N)N)NC(=O)[C@H]([C@@H](C)CC)NC(=O)[C@H](Cc2ccc(O)cc2)NC(=O)[C@H](CCC(=O)O)NC(=O)[C@H](CC(C)C)NC(=O)CNC(=O)[C@@H](NC(=O)[C@H](CC(C)C)NC(=O)[C@H](CCCNC(=N)N)NC(=O)[C@@H](NC(=O)[C@H](CO)NC(=O)[C@H](CCC(=O)O)NC(=O)[C@@H](N)CCCCN)C(C)C)CSSC[C@H](N)C(=O)N[C@@H](CCCNC(=N)N)C(=O)N[C@@H](CC(=O)O)C(=O)NCC(=O)N[C@@H](C)C(=O)N[C@@H](CO)C(=O)N[C@@H](CCSC)C(=O)N[C@@H]([C@@H](C)O)C(=O)N[C@@H](CC(=O)O)C(=O)N[C@@H](CC(C)C)C(=O)N[C@@H](CO)C(=O)N[C@@H](C)C(=O)N[C@@H](CC(C)C)C(=O)N[C@H](C(=O)O)CSSC[C@@H](C(=O)N[C@@H](C)C(=O)N[C@@H](CO)C(=O)N[C@@H](CO)C(=O)N[C@@H](CCCNC(=N)N)C(=O)N[C@@H](Cc2c[nH]c3ccccc23)C(=O)O)NC1=O` (I: H-KESVRLCGLEYIRTVIYICASSRW-OH / II: H-CRDGASMTDLSALC-OH; disulfide I:7-II:1, I:19-II:14), the Ki in experiment [2] came out at 912 nM. Also, in experiment [1], the EC50 came to 603 nM.
As to `CC[C@H](C)[C@@H]1NC(=O)[C@H](Cc2ccc(O)cc2)NC(=O)[C@H]([C@@H](C)CC)NC(=O)[C@H](C(C)C)NC(=O)[C@H]([C@@H](C)O)NC(=O)[C@H](CCCNC(=N)N)NC(=O)[C@H]([C@@H](C)CC)NC(=O)[C@H](Cc2ccc(O)cc2)NC(=O)[C@H](CCC(=O)O)NC(=O)[C@H](CC(C)C)NC(=O)CNC(=O)[C@@H](NC(=O)[C@H](CC(C)C)NC(=O)[C@H](CCCNC(=N)N)NC(=O)[C@@H](NC(=O)[C@H](CO)NC(=O)[C@H](CCC(=O)O)NC(=O)[C@@H](N)CCCCN)C(C)C)CSSC[C@H](N)C(=O)N[C@@H](CCCNC(=N)N)C(=O)N[C@@H](CCC(=O)O)C(=O)NCC(=O)N[C@@H](C)C(=O)N[C@@H](CO)C(=O)N[C@@H](CCSC)C(=O)N[C@@H](CCCCN)C(=O)N[C@@H](CCC(=O)O)C(=O)N[C@@H](CC(C)C)C(=O)N[C@@H](CO)C(=O)N[C@@H]([C@@H](C)O)C(=O)N[C@@H](CC(C)C)C(=O)N[C@H](C(=O)O)CSSC[C@@H](C(=O)N[C@@H](C)C(=O)N[C@@H](CO)C(=O)N[C@@H](CO)C(=O)N[C@@H](CCCNC(=N)N)C(=O)N[C@@H](Cc2c[nH]c3ccccc23)C(=O)O)NC1=O` (I: H-KESVRLCGLEYIRTVIYICASSRW-OH / II: H-CREGASMKELSTLC-OH; disulfide I:7-II:1, I:19-II:14), the Ki in experiment [2] is 22.4 nM. The EC50 in experiment [1] came out at 15.1 nM.
On the same counts, the results for `CC[C@H](C)[C@@H]1NC(=O)[C@H](Cc2ccc(O)cc2)NC(=O)[C@H]([C@@H](C)CC)NC(=O)[C@H](C(C)C)NC(=O)[C@H]([C@@H](C)O)NC(=O)[C@H](CCCNC(=N)N)NC(=O)[C@H]([C@@H](C)CC)NC(=O)[C@H](Cc2ccc(O)cc2)NC(=O)[C@H](CCC(=O)O)NC(=O)[C@H](CC(C)C)NC(=O)CNC(=O)[C@@H](NC(=O)[C@H](CC(C)C)NC(=O)[C@H](CCCNC(=N)N)NC(=O)[C@@H](NC(=O)[C@H](CO)NC(=O)[C@H](CCC(=O)O)NC(=O)[C@@H](N)CCCCN)C(C)C)CSSC[C@H](N)C(=O)N[C@@H]([C@@H](C)O)C(=O)N[C@@H](CC(=O)O)C(=O)NCC(=O)N[C@@H](C)C(=O)N[C@@H](CO)C(=O)N[C@@H](CCSC)C(=O)N[C@@H]([C@@H](C)O)C(=O)N[C@@H](CC(=O)O)C(=O)N[C@@H](CC(C)C)C(=O)N[C@@H](CO)C(=O)N[C@@H](C)C(=O)N[C@@H](CC(C)C)C(=O)N[C@H](C(=O)O)CSSC[C@@H](C(=O)N[C@@H](C)C(=O)N[C@@H](CO)C(=O)N[C@@H](CO)C(=O)N[C@@H](CCCNC(=N)N)C(=O)N[C@@H](Cc2c[nH]c3ccccc23)C(=O)O)NC1=O` (I: H-KESVRLCGLEYIRTVIYICASSRW-OH / II: H-CTDGASMTDLSALC-OH; disulfide I:7-II:1, I:19-II:14) are 145 nM and 100 nM.
On the same counts, the results for `CC[C@H](C)[C@@H]1NC(=O)[C@H](Cc2ccc(O)cc2)NC(=O)[C@H]([C@@H](C)CC)NC(=O)[C@H](C(C)C)NC(=O)[C@H]([C@@H](C)O)NC(=O)[C@H](CCCNC(=N)N)NC(=O)[C@H](C(C)C)NC(=O)[C@H](Cc2ccc(O)cc2)NC(=O)[C@H](CC(=O)O)NC(=O)[C@H](CC(C)C)NC(=O)CNC(=O)[C@@H](NC(=O)[C@H](CC(C)C)NC(=O)[C@H](CCCCN)NC(=O)[C@@H](NC(=O)[C@@H](NC(=O)[C@H](CCC(N)=O)NC(=O)[C@H](CCCNC(=N)N)NC(=O)[C@@H](N)CO)[C@@H](C)O)C(C)C)CSSC[C@H](N)C(=O)N[C@@H](CCCNC(=N)N)C(=O)N[C@@H](CCC(=O)O)C(=O)NCC(=O)N[C@@H](C)C(=O)N[C@@H](CO)C(=O)N[C@@H](CCSC)C(=O)N[C@@H](CCCCN)C(=O)N[C@@H](CCC(=O)O)C(=O)N[C@@H](CC(C)C)C(=O)N[C@@H](CO)C(=O)N[C@@H]([C@@H](C)O)C(=O)N[C@@H](CC(C)C)C(=O)N[C@H](C(=O)O)CSSC[C@@H](C(=O)N[C@@H](C)C(=O)N[C@@H](CO)C(=O)N[C@@H](CO)C(=O)N[C@@H](CCCNC(=N)N)C(=O)N[C@@H](Cc2c[nH]c3ccccc23)C(=O)O)NC1=O` (I: H-SRQTVKLCGLDYVRTVIYICASSRW-OH / II: H-CREGASMKELSTLC-OH; disulfide I:8-II:1, I:20-II:14) are 18.6 nM and 33.9 nM.
For “I: H-KESVRLCGLEYIRTVIYICASSRW-OH / II: H-RDLQALCCREGCSMKELSTLC-OH (disulfide I:7-II:8, I:19-II:21, II:7-II:12)”, in experiment [2], the affinity, expressed as Ki, was 5.5 nM. Besides, the 50% effective concentration (EC50) in experiment [1] was 0.35 nM.
